From patent US10919935B2, “Antimicrobial peptide derived from myxinidin peptide and uses thereof” (INDUSTRY-ACADEMIC COOPERATION FOUNDATION, CHOSUN UNIVERSITY, priority 2015, dated 2021)
Residues, ends and D or L forms follow the SMILES beside them.

Assays:
S. typhimurium 8009 = experiment: MIC at salt concentration (Example 3); assay type: cell-based, Salmonella typhimurium
Description: (§1) To compare the antimicrobial activity of the peptide produced by the method of Example 1, the inventors of the present invention measured the minimum growth inhibitory concentration (MIC), which is minimum concentration of the peptide showing no dissociation of bacterial cells, at salt concentration.
(§2) Specifically, the bacterial strain described in the above Table 2 was cultured in each medium to a mid-log phase. Then, after dilution to bacterial cell concentration of 2×10^5 cells/100 μl, the cells were inoculated to a microtiter plate (NUNC, USA). Thereafter, myxinidin 1, myxinidin 2, or myxinidin 3 peptides which have been synthesized in Example 1 above was diluted, 1/2 times for each, with BSA+150 mM sodium chloride (NaCl) solution, physiological saline (PBS) solution, or 10 mM sodium phosphate (SP) solution in a 96-well plate. After adding the cells to a plate, the cells were cultured for 12 hours at 37° C. By using a microtiter plate reader (Merck Elisa reader, Germany), the absorbance was measured at a wavelength of 600 nm to determine the MIC value of each bacterial strain. As a control group, myxinidin as a mother peptide was subjected to the same processes as above and the MIC value of each bacterial strain was obtained.

S. typhimurium 8013 = experiment: MIC at salt concentration (Example 3); assay type: cell-based, Salmonella typhimurium
Description: as §1, §2

S. typhimurium = experiment: MIC at salt concentration (Example 3); assay type: cell-based, Salmonella typhimurium
Description: as §1, §2

S. aureus 3114 = experiment: MIC at salt concentration (Example 3); assay type: cell-based, Staphylococcus aureus
Description: as §1, §2

S. aureus 3709 = experiment: MIC at salt concentration (Example 3); assay type: cell-based, Staphylococcus aureus
Description: as §1, §2

S. aureus [1] = experiment: MIC at salt concentration (Example 3); assay type: cell-based, Staphylococcus aureus
Description: as §1, §2

L. monocytogenes [2] = experiment: MIC at salt concentration (Example 3); assay type: cell-based, Listeria monocytogenes
Description: as §1, §2

P. aeruginosa 3592 = experiment: MIC at salt concentration (Example 3); assay type: cell-based, Pseudomonas aeruginosa
Description: as §1, §2

P. aeruginosa 5018 = experiment: MIC at salt concentration (Example 3); assay type: cell-based, Pseudomonas aeruginosa
Description: as §1, §2

P. aeruginosa [3] = experiment: MIC at salt concentration (Example 3); assay type: cell-based, Pseudomonas aeruginosa
Description: as §1, §2

P. aeruginosa [4] = experiment: Anti-biofilm activity (crystal violet); assay type: cell-based, Pseudomonas aeruginosa
Description: (§3) To compare the antimicrobial activity of the peptide produced by the method of Example 1, the inventors of the present invention measured the biofilm inhibitory concentration value of the peptide showing no dissociation of bacterial cells.
(§4) Specifically, the Gram-negative bacteria and Gram-positive bacteria among the bacterial strains described in the above Table 2 were cultured in each medium to a mid-log phase. Then, after dilution to bacterial cell concentration of 5×10^5 cells/100 μl, the cells were inoculated to a microtiter plate (NUNC, USA). Thereafter, myxinidin 1, myxinidin 2, or myxinidin 3 peptides which have been synthesized in Example 1 above was diluted, 1/10 times for each, with physiological saline (PBS) solution in a 96-well plate. After adding the cells to a plate, the cells were cultured for 12 hours at 37° C. After removing the supernatant, the cells were fixed with 100% methanol and reacted for 2 hours with Crystal violet staining solution followed by rinsing for 3 times. Then, after dissolving in 95% ethanol, the absorbance was measured at a wavelength of 595 nm by using a microtiter plate reader (Merck Elisa reader, Germany) to determine the biofilm inhibitory concentration value of each bacterial strain. As a control group, myxinidin as a mother peptide was subjected to the same processes as above and the biofilm inhibitory concentration value of each bacterial strain was obtained.

S. aureus [5] = experiment: Anti-biofilm activity (crystal violet); assay type: cell-based, Staphylococcus aureus
Description: as §3, §4

L. monocytogenes [6] = experiment: Anti-biofilm activity (crystal violet); assay type: cell-based, Listeria monocytogenes
Description: as §3, §4

in vitro = assay type: cell-based; conditions: human, NHK cells (normal human keratinocytes)
Description: To determine the cytotoxicity of the peptide produced by the method of Example 1 in normal cell line, toxicity was measured by using NHK cells (Normal Human Keratinocyte cells).
Specifically, NHK cells which have been cultured in Epilife medium with 60 μM calcium (Gibco, USA) containing 10% HKGS (Human Keratinocyte Growth Supplement) (Gibco, USA) were aliquoted in a 96-well plate to have 1×10^4 cells per well. After culturing them for 24 hours, the cells were subjected to a treatment with myxinidin, myxinidin 1, myxinidin 2, or myxinidin 3 peptide, each at concentration of 3.125, 6.25, 12.5, or 25.0 μM/well, followed by reaction for 24 hours in a 5% CO2 incubator. After the culture, a reaction solution containing 5 mg/ml MTT (Thiazolyl Blue Tetrazolium Bromide) dissolved in physiological saline (PBS) was added in an amount of 20 μl to each well and allowed to react for 4 hours. After that, the supernatant was removed, and, by dissolving MTT crystals that are formed by adding 200 μl of DMSO, the absorbance at 560 nm was measured to determine the cell survival ability.

[7] = NaCl (BSA+150 mM sodium chloride)

Structure (SMILES): CC[C@H](C)[C@H](NC(=O)[C@H](Cc1c[nH]c2ccccc12)NC(=O)[C@H](CCCNC(=N)N)NC(=O)[C@@H](NC(=O)[C@@H](N)CCCNC(=N)N)[C@@H](C)CC)C(=O)N[C@@H](CC(C)C)C(=O)N[C@@H](CCCNC(=N)N)C(=O)N[C@@H](Cc1ccc(O)cc1)C(=O)N[C@@H](Cc1c[nH]c2ccccc12)C(=O)N[C@@H](CCCNC(=N)N)C(=O)N[C@@H](Cc1c[nH]c2ccccc12)C(=O)N[C@@H](CO)C(N)=O [Myxinidin 3, RIRWILRYWRWS-NH2] (H-RIRWILRYWRWS-NH2; N-terminus assumed)
- Antimicrobial activity (MIC) according to salt concentration (S. typhimurium 8009; [7]): 4
- Antimicrobial activity (MIC) according to salt concentration (S. typhimurium 8009; PBS): 4
- Antimicrobial activity (MIC) according to salt concentration (S. typhimurium 8009; SP (10 mM sodium phosphate)): 2
- Antimicrobial activity (MIC) according to salt concentration (S. typhimurium 8013; [7]): 8
- Antimicrobial activity (MIC) according to salt concentration (S. typhimurium 8013; PBS): 4
- Antimicrobial activity (MIC) according to salt concentration (S. typhimurium 8013; SP (10 mM sodium phosphate)): 2
- Antimicrobial activity (MIC) according to salt concentration (S. typhimurium; [7]): 2
- Antimicrobial activity (MIC) according to salt concentration (S. typhimurium; PBS): 2
- Antimicrobial activity (MIC) according to salt concentration (S. typhimurium; SP (10 mM sodium phosphate)): 2
- Antimicrobial activity (MIC) according to salt concentration (S. aureus 3114; [7]): 16
- Antimicrobial activity (MIC) according to salt concentration (S. aureus 3114; PBS): 4
- Antimicrobial activity (MIC) according to salt concentration (S. aureus 3114; SP (10 mM sodium phosphate)): 4
- Antimicrobial activity (MIC) according to salt concentration (S. aureus 3709; [7]): 4
- Antimicrobial activity (MIC) according to salt concentration (S. aureus 3709; PBS): 4
- Antimicrobial activity (MIC) according to salt concentration (S. aureus 3709; SP (10 mM sodium phosphate)): 4
- Antimicrobial activity (MIC) according to salt concentration (S. aureus [1]; [7]): 0.25
- Antimicrobial activity (MIC) according to salt concentration (S. aureus [1]; PBS): 1
- Antimicrobial activity (MIC) according to salt concentration (S. aureus [1]; SP (10 mM sodium phosphate)): 1
- Antimicrobial activity (MIC) according to salt concentration (L. monocytogenes [2]; [7]): 2
- Antimicrobial activity (MIC) according to salt concentration (L. monocytogenes [2]; PBS): 4
- Antimicrobial activity (MIC) according to salt concentration (L. monocytogenes [2]; SP (10 mM sodium phosphate)): 4
- Antimicrobial activity (MIC) according to salt concentration (P. aeruginosa 3592; [7]): 8
- Antimicrobial activity (MIC) according to salt concentration (P. aeruginosa 3592; PBS): 4
- Antimicrobial activity (MIC) according to salt concentration (P. aeruginosa 3592; SP (10 mM sodium phosphate)): 4
- Antimicrobial activity (MIC) according to salt concentration (P. aeruginosa 5018; [7]): 8
- Antimicrobial activity (MIC) according to salt concentration (P. aeruginosa 5018; PBS): 4
- Antimicrobial activity (MIC) according to salt concentration (P. aeruginosa 5018; SP (10 mM sodium phosphate)): 2
- Antimicrobial activity (MIC) according to salt concentration (P. aeruginosa [3]; [7]): 4
- Antimicrobial activity (MIC) according to salt concentration (P. aeruginosa [3]; PBS): 4
- Antimicrobial activity (MIC) according to salt concentration (P. aeruginosa [3]; SP (10 mM sodium phosphate)): 4
- Biofilm forming ability (P. aeruginosa [4]; peptide 0.25 μM): 100%
- Biofilm forming ability (P. aeruginosa [4]; peptide 0.5 μM): 97%
- Biofilm forming ability (P. aeruginosa [4]; peptide 1 μM): 97%
- Biofilm forming ability (P. aeruginosa [4]; peptide 2 μM): 64%
- Biofilm forming ability (P. aeruginosa [4]; peptide 4 μM): 8%
- Biofilm forming ability (P. aeruginosa [4]; peptide 8 μM): 7%
- Biofilm forming ability (P. aeruginosa [4]; peptide 16 μM): 7%
- Biofilm forming ability (P. aeruginosa [4]; peptide 32 μM): 7%
- Biofilm forming ability (S. aureus [5]; peptide 0.25 μM): 85%
- Biofilm forming ability (S. aureus [5]; peptide 0.5 μM): 84%
- Biofilm forming ability (S. aureus [5]; peptide 1 μM): 84%
- Biofilm forming ability (S. aureus [5]; peptide 2 μM): 71%
- Biofilm forming ability (S. aureus [5]; peptide 4 μM): 28%
- Biofilm forming ability (S. aureus [5]; peptide 8 μM): 17%
- Biofilm forming ability (S. aureus [5]; peptide 16 μM): 16%
- Biofilm forming ability (S. aureus [5]; peptide 32 μM): 14%
- Biofilm forming ability (L. monocytogenes [6]; peptide 0.25 μM): 94%
- Biofilm forming ability (L. monocytogenes [6]; peptide 0.5 μM): 87%
- Biofilm forming ability (L. monocytogenes [6]; peptide 1 μM): 87%
- Biofilm forming ability (L. monocytogenes [6]; peptide 2 μM): 83%
- Biofilm forming ability (L. monocytogenes [6]; peptide 4 μM): 22%
- Biofilm forming ability (L. monocytogenes [6]; peptide 8 μM): 21%
- Biofilm forming ability (L. monocytogenes [6]; peptide 16 μM): 18%
- Biofilm forming ability (L. monocytogenes [6]; peptide 32 μM): 16%
- viability at 24 h, 3.125 µM (in vitro): 100%
- viability at 24 h, 6.25 µM (in vitro): 100%
- viability at 24 h, 12.5 µM (in vitro): 100%
- viability at 24 h, 25 µM (in vitro): 100%
